# Data as given in ChEMBL document CHEMBL3885861, “Open TG-GATES”.
# Species on record: Rattus norvegicus
# Experiment: Open TG-GATES - Regimen: Single
# Format: toxicity, organism-based, Sprague-Dawley
# Set-up: regimen Single, gender Male, age 6 weeks
# Settings: in vivo, po, route gavage; for APTT / Bas / Eos / Fbg / Hb / Ht / Lym / MCH / MCHC / MCV / Mono / Neu / PT / Plat / RBC / Ret / WBC: tissue Blood; for KIDNEY_L / KIDNEY_R / KIDNEY_TOTAL: tissue Kidney; for LIVER: tissue Liver; for ALP / ALT / AST / CRE / DBIL / GLC / IP / K / LDH / Na / PL / RALB / TBIL / TC / TP / gamma-GTP: tissue Plasma
# [1] = 300 mg/kg, 3 h, dose level Middle
# [2] = 300 mg/kg, 6 h, dose level Middle
# [3] = 300 mg/kg, 9 h, dose level Middle
# [4] = 300 mg/kg, 24 h, dose level Middle
# [5] = 1000 mg/kg, 3 h, dose level High
# [6] = 1000 mg/kg, 6 h, dose level High
# [7] = 1000 mg/kg, 9 h, dose level High
# [8] = 1000 mg/kg, 24 h, dose level High
structure (smiles),measurement,setting,value
Clc1ccccc1CN1CCc2sccc2C1 [TICLOPIDINE],TERMINAL_BW,[1],211.8 g
same,APTT,[1],19.5 s
same,Bas,[1],0%
same,Eos,[1],1%
same,Fbg,[1],220.8 mg/dL
same,Hb,[1],13.1 g/dL
same,Ht,[1],37.1%
same,Lym,[1],73.4%
same,MCH,[1],21.8 pg
same,MCHC,[1],35.3%
same,MCV,[1],61.6 fL
same,Mono,[1],2.8%
same,Neu,[1],21.6%
same,PT,[1],12.2 s
same,Plat,[1],124.1 x10_4/uL
same,RBC,[1],602.2 x10_4/ul
same,Ret,[1],8.4%
same,WBC,[1],73.9 x10_2/uL
same,KIDNEY_L,[1],0.9 g
same,KIDNEY_R,[1],1 g
same,KIDNEY_TOTAL,[1],1.9 g
same,LIVER,[1],9 g
same,ALP,[1],999 IU/L
same,ALT,[1],36.2 IU/L
same,AST,[1],74 IU/L
same,CRE,[1],0.4 mg/dL
same,DBIL,[1],0.078 mg/dL
same,GLC,[1],194.2 mg/dL
same,IP,[1],10.5 mg/dL
same,K,[1],3.7 meq/L
same,LDH,[1],161.4 IU/L
same,Na,[1],141 meq/L
same,PL,[1],129.2 mg/dL
same,RALB,[1],3.3 g/dL
same,TBIL,[1],0.1 mg/dL
same,TC,[1],72.6 mg/dL
same,TP,[1],5.4 g/dL
same,gamma-GTP,[1],0.8 IU/L
same,TERMINAL_BW,[2],209.7 g
same,APTT,[2],18.1 s
same,Bas,[2],0.2%
same,Eos,[2],0.8%
same,Fbg,[2],226.8 mg/dL
same,Hb,[2],13.5 g/dL
same,Ht,[2],39.1%
same,Lym,[2],77%
same,MCH,[2],21.1 pg
same,MCHC,[2],34.5%
same,MCV,[2],61.3 fL
same,Mono,[2],2.4%
same,Neu,[2],18.4%
same,PT,[2],12.1 s
same,Plat,[2],131 x10_4/uL
same,RBC,[2],637.6 x10_4/ul
same,Ret,[2],7.8%
same,WBC,[2],76.9 x10_2/uL
same,KIDNEY_L,[2],1 g
same,KIDNEY_R,[2],1 g
same,KIDNEY_TOTAL,[2],1.9 g
same,LIVER,[2],9.1 g
same,ALP,[2],909.6 IU/L
same,ALT,[2],34 IU/L
same,AST,[2],74.6 IU/L
same,CRE,[2],0.4 mg/dL
same,DBIL,[2],0.078 mg/dL
same,GLC,[2],192 mg/dL
same,IP,[2],10 mg/dL
same,K,[2],3.9 meq/L
same,LDH,[2],213 IU/L
same,Na,[2],141 meq/L
same,PL,[2],134 mg/dL
same,RALB,[2],3.4 g/dL
same,TBIL,[2],0.1 mg/dL
same,TC,[2],76.2 mg/dL
same,TP,[2],5.5 g/dL
same,gamma-GTP,[2],1.2 IU/L
same,TERMINAL_BW,[3],208.6 g
same,APTT,[3],18.8 s
same,Bas,[3],0.2%
same,Eos,[3],1%
same,Fbg,[3],226.8 mg/dL
same,Hb,[3],13.3 g/dL
same,Ht,[3],37.6%
same,Lym,[3],76%
same,MCH,[3],21.4 pg
same,MCHC,[3],35.3%
same,MCV,[3],60.7 fL
same,Mono,[3],2%
same,Neu,[3],20.2%
same,PT,[3],12.7 s
same,Plat,[3],132.7 x10_4/uL
same,RBC,[3],621.4 x10_4/ul
same,Ret,[3],7.2%
same,WBC,[3],64 x10_2/uL
same,KIDNEY_L,[3],0.9 g
same,KIDNEY_R,[3],1 g
same,KIDNEY_TOTAL,[3],1.9 g
same,LIVER,[3],8.3 g
same,ALP,[3],859.4 IU/L
same,ALT,[3],31.2 IU/L
same,AST,[3],65.4 IU/L
same,CRE,[3],0.4 mg/dL
same,DBIL,[3],0.072 mg/dL
same,GLC,[3],197 mg/dL
same,IP,[3],9.8 mg/dL
same,K,[3],3.9 meq/L
same,LDH,[3],129.6 IU/L
same,Na,[3],142 meq/L
same,PL,[3],129 mg/dL
same,RALB,[3],3.3 g/dL
same,TBIL,[3],0.1 mg/dL
same,TC,[3],69.8 mg/dL
same,TP,[3],5.5 g/dL
same,gamma-GTP,[3],1.2 IU/L
same,TERMINAL_BW,[4],212.9 g
same,APTT,[4],19.8 s
same,Bas,[4],0.4%
same,Eos,[4],1%
same,Fbg,[4],228.2 mg/dL
same,Hb,[4],14.1 g/dL
same,Ht,[4],39.5%
same,Lym,[4],80.8%
same,MCH,[4],22.1 pg
same,MCHC,[4],35.6%
same,MCV,[4],62.2 fL
same,Mono,[4],2.4%
same,Neu,[4],14.6%
same,PT,[4],12.1 s
same,Plat,[4],128.1 x10_4/uL
same,RBC,[4],635.4 x10_4/ul
same,Ret,[4],6.1%
same,WBC,[4],76.1 x10_2/uL
same,KIDNEY_L,[4],1 g
same,KIDNEY_R,[4],1 g
same,KIDNEY_TOTAL,[4],2 g
same,LIVER,[4],9.5 g
same,ALP,[4],1118.8 IU/L
same,ALT,[4],35.2 IU/L
same,AST,[4],66.6 IU/L
same,CRE,[4],0.4 mg/dL
same,DBIL,[4],0.078 mg/dL
same,GLC,[4],182.2 mg/dL
same,IP,[4],8.7 mg/dL
same,K,[4],4 meq/L
same,LDH,[4],120 IU/L
same,Na,[4],142 meq/L
same,PL,[4],146.6 mg/dL
same,RALB,[4],3.5 g/dL
same,TBIL,[4],0.1 mg/dL
same,TC,[4],83.4 mg/dL
same,TP,[4],5.6 g/dL
same,gamma-GTP,[4],1 IU/L
same,TERMINAL_BW,[5],212.3 g
same,APTT,[5],17.9 s
same,Bas,[5],0.2%
same,Eos,[5],1%
same,Fbg,[5],220.2 mg/dL
same,Hb,[5],13 g/dL
same,Ht,[5],36.9%
same,Lym,[5],73.2%
same,MCH,[5],21.4 pg
same,MCHC,[5],35.3%
same,MCV,[5],60.7 fL
same,Mono,[5],2.8%
same,Neu,[5],22.4%
same,PT,[5],11.8 s
same,Plat,[5],128.4 x10_4/uL
same,RBC,[5],609.4 x10_4/ul
same,Ret,[5],8.6%
same,WBC,[5],61.1 x10_2/uL
same,KIDNEY_L,[5],0.9 g
same,KIDNEY_R,[5],0.9 g
same,KIDNEY_TOTAL,[5],1.9 g
same,LIVER,[5],9 g
same,ALP,[5],991.8 IU/L
same,ALT,[5],36 IU/L
same,AST,[5],71.4 IU/L
same,CRE,[5],0.4 mg/dL
same,DBIL,[5],0.076 mg/dL
same,GLC,[5],196.4 mg/dL
same,IP,[5],10.7 mg/dL
same,K,[5],3.8 meq/L
same,LDH,[5],147.4 IU/L
same,Na,[5],140.4 meq/L
same,PL,[5],122 mg/dL
same,RALB,[5],3.3 g/dL
same,TBIL,[5],0.1 mg/dL
same,TC,[5],69.8 mg/dL
same,TP,[5],5.5 g/dL
same,gamma-GTP,[5],0.8 IU/L
same,TERMINAL_BW,[6],211.9 g
same,APTT,[6],19.4 s
same,Bas,[6],0%
same,Eos,[6],1%
same,Fbg,[6],230.6 mg/dL
same,Hb,[6],13.5 g/dL
same,Ht,[6],38.4%
same,Lym,[6],71.8%
same,MCH,[6],21.6 pg
same,MCHC,[6],35.1%
same,MCV,[6],61.4 fL
same,Mono,[6],2%
same,Neu,[6],24.6%
same,PT,[6],12.2 s
same,Plat,[6],118.7 x10_4/uL
same,RBC,[6],625.2 x10_4/ul
same,Ret,[6],8.6%
same,WBC,[6],69.6 x10_2/uL
same,KIDNEY_L,[6],0.9 g
same,KIDNEY_R,[6],0.9 g
same,KIDNEY_TOTAL,[6],1.8 g
same,LIVER,[6],8.7 g
same,ALP,[6],863 IU/L
same,ALT,[6],31 IU/L
same,AST,[6],69 IU/L
same,CRE,[6],0.4 mg/dL
same,DBIL,[6],0.082 mg/dL
same,GLC,[6],190.8 mg/dL
same,IP,[6],9.5 mg/dL
same,K,[6],3.8 meq/L
same,LDH,[6],196.2 IU/L
same,Na,[6],141.8 meq/L
same,PL,[6],149.8 mg/dL
same,RALB,[6],3.4 g/dL
same,TBIL,[6],0.1 mg/dL
same,TC,[6],91 mg/dL
same,TP,[6],5.7 g/dL
same,gamma-GTP,[6],1 IU/L
same,TERMINAL_BW,[7],212.4 g
same,APTT,[7],18.1 s
same,Bas,[7],0.2%
same,Eos,[7],0.6%
same,Fbg,[7],228.8 mg/dL
same,Hb,[7],13.6 g/dL
same,Ht,[7],38.4%
same,Lym,[7],79.6%
same,MCH,[7],21.5 pg
same,MCHC,[7],35.4%
same,MCV,[7],60.9 fL
same,Mono,[7],2.2%
same,Neu,[7],16.4%
same,PT,[7],12.4 s
same,Plat,[7],132.4 x10_4/uL
same,RBC,[7],629.8 x10_4/ul
same,Ret,[7],7.3%
same,WBC,[7],61.3 x10_2/uL
same,KIDNEY_L,[7],1 g
same,KIDNEY_R,[7],0.9 g
same,KIDNEY_TOTAL,[7],1.9 g
same,LIVER,[7],8.8 g
same,ALP,[7],1127.2 IU/L
same,ALT,[7],25.6 IU/L
same,AST,[7],65.2 IU/L
same,CRE,[7],0.4 mg/dL
same,DBIL,[7],0.076 mg/dL
same,GLC,[7],201.4 mg/dL
same,IP,[7],10 mg/dL
same,K,[7],3.8 meq/L
same,LDH,[7],200.8 IU/L
same,Na,[7],142.4 meq/L
same,PL,[7],141.4 mg/dL
same,RALB,[7],3.6 g/dL
same,TBIL,[7],0.1 mg/dL
same,TC,[7],74.8 mg/dL
same,TP,[7],5.6 g/dL
same,gamma-GTP,[7],1 IU/L
same,TERMINAL_BW,[8],208.4 g
same,APTT,[8],22.1 s
same,Bas,[8],0.4%
same,Eos,[8],1.2%
same,Fbg,[8],209 mg/dL
same,Hb,[8],13.9 g/dL
same,Ht,[8],38.9%
same,Lym,[8],80.8%
same,MCH,[8],21.4 pg
same,MCHC,[8],35.7%
same,MCV,[8],59.9 fL
same,Mono,[8],1.8%
same,Neu,[8],15%
same,PT,[8],13.1 s
same,Plat,[8],129.7 x10_4/uL
same,RBC,[8],650 x10_4/ul
same,Ret,[8],5.9%
same,WBC,[8],63.6 x10_2/uL
same,KIDNEY_L,[8],1 g
same,KIDNEY_R,[8],0.9 g
same,KIDNEY_TOTAL,[8],1.9 g
same,LIVER,[8],9.6 g
same,ALP,[8],1071.8 IU/L
same,ALT,[8],27.8 IU/L
same,AST,[8],64.6 IU/L
same,CRE,[8],0.5 mg/dL
same,DBIL,[8],0.084 mg/dL
same,GLC,[8],196.4 mg/dL
same,IP,[8],8.8 mg/dL
same,K,[8],3.8 meq/L
same,LDH,[8],141 IU/L
same,Na,[8],142 meq/L
same,PL,[8],143 mg/dL
same,RALB,[8],3.6 g/dL
same,TBIL,[8],0.1 mg/dL
same,TC,[8],86 mg/dL
same,TP,[8],5.7 g/dL
same,gamma-GTP,[8],1.2 IU/L
